{"source": "paper PMC3070735", "about": "“Uremic Toxins Inhibit Transport by Breast Cancer Resistance Protein and Multidrug Resistance Protein 4 at Clinically Relevant Concentrations” (PLoS ONE, 2011)", "key": {"[1]": {"set-up": "method as in PMID 8832487, PMID 10052856", "conditions": "isolated perfused rat kidney, secretory transport; cited from earlier work"}, "[2]": {"biological_target": "T1, BCRP (Homo sapiens, UniProt Q9UNQ0)", "T1 sequence (Q9UNQ0 1-655)": "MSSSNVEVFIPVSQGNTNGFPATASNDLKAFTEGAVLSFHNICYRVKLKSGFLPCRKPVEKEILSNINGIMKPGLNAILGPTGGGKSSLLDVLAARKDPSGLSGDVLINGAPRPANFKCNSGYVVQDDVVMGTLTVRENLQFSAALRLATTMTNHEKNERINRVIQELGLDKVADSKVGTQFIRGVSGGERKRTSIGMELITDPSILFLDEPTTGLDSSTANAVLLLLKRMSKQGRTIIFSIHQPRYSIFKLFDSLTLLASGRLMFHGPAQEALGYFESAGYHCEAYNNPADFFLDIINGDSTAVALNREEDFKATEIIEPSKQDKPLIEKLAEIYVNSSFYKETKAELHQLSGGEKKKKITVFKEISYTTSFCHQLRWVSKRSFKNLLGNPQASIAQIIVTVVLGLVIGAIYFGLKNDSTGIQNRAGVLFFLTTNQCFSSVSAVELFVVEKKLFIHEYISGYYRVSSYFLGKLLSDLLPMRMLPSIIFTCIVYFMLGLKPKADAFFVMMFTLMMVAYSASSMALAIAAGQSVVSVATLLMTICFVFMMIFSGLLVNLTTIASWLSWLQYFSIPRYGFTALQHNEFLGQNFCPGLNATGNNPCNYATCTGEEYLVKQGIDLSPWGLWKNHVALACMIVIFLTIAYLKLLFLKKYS", "experiment": "Membrane vesicle transport inhibition assay: BCRP-mediated [3H]-E1S uptake", "experimental": "(§1) Human embryonic kidney (HEK293; purchased at American Type Culture Collection, Manassas, VA) cells were cultured in Dulbecco's modified Eagle's medium (Invitrogen life sciences, Breda, the Netherlands) containing 10% (v/v) fetal calf serum (MP Biomedicals, Uden, the Netherlands) at 37°C in a 5% (v/v) CO2 atmosphere. To functionally overexpress MRP4 and BCRP, HEK293 cells were transduced with baculoviruses of human MRP4, BCRP or enhanced yellow fluorescent protein (EYFP), generated via the Bac-to-Bac system (Invitrogen) as previously described. To transduce HEK293 cells, they were cultured in 500 cm^2 flasks until 70% confluence. Subsequently, medium was removed and 10 ml of virus and 25 ml of medium were added and incubated for 30 min at 37°C. Next, 50 ml of medium was added and after 2 h of transduction 5 mM sodium butyrate was added.\n(§2) Three days after transduction, cells were harvested and pelleted by centrifugation (30 min at 4,000 x g). Afterwards, the cells were resuspended in ice-cold hypotonic TS buffer (0.5 mM sodium phosphate, 0.1 mM EDTA, pH 7.0) containing protease inhibitors (100 µM phenylmethylsulfonyl fluoride, 5 µg/ml aprotinin, 5 µg/ml leupeptin, 1 µg/ml pepstatin and 1 µg/ml E-64) and shaken for 30 min at 4°C. Cells were then centrifuged at 100,000 x g for 30 min at 4°C. Subsequently, pellet was resuspended in ice-cold isotonic buffer (10 mM Tris-HEPES and 250 mM sucrose, pH 7.4, adjusted with HEPES) supplemented with protease inhibitors and homogenized using a tight fitting Dounce homogenizer followed by centrifugation (1,000 x g, 20 min, 4°C). Afterwards, supernatant was centrifuged at 100,000 x g for 1 h at 4°C. The resulting pellet was resuspended in isotonic buffer and passed through a 27-gauge needle 25 times to obtain crude membrane vesicles. The protein content of samples was determined using the Bio-Rad protein assay (Veenendaal, the Netherlands), according to manufacturers recommendations. Vesicles were frozen in liquid nitrogen and stored at −80°C until use. The orientation of the membrane vesicles was not determined, since ATP-dependent uptake occurs only in inside-out vesicles.\n(§3) A rapid filtration technique was used to study the uptake of [^3H]-MTX and [^3H]-E1S into MRP4 or BCRP membrane vesicles, as previously described. In short, 25 µl of TS buffer containing 4 mM ATP, 10 mM MgCl2 and radiolabeled substrate was added to 5 µl of the membrane vesicles (1.5 mg/ml). The transport assay was performed in the absence or presence of various concentrations of uremic toxins to evaluate the inhibitory effects of these compounds on MRP4-mediated [^3H]-MTX uptake and BCRP-mediated [^3H]-E1S uptake. […] Uptake was stopped by placing the samples on ice and the addition of 150 µl ice cold TS buffer. Subsequently, the samples were transferred to a 96 well filter plate (Millipore, Etten-leur, the Netherlands) pre-incubated with TS buffer and filtered using a Multiscreen HTS-Vacuum Manifold filtration device (Millipore). Afterwards, 2 ml of scintillation liquid was added to each filter and radioactivity was determined using liquid scintillation counting. As negative controls ATP was substituted for AMP and EYFP-membrane vesicles were used. Each experiment was performed in triplicates.\nStatistics were performed using GraphPad Prism 5.02 via an unpaired t test or a Kruskal-Wallis test followed by a Dunn's Multiple Comparison test. Differences between groups were considered to be statistically significant when p<0.05. The mean IC50 and IC20 values were calculated from the inhibition curves used for the Dixon analysis and to determine the inhibition constant (Ki) from the Dixon plots. Transport inhibition studies were performed in triplicate and repeated at least three times."}, "[3]": {"biological_target": "T2, MRP4 (Homo sapiens, UniProt O15439)", "T2 sequence (O15439 1-1325)": "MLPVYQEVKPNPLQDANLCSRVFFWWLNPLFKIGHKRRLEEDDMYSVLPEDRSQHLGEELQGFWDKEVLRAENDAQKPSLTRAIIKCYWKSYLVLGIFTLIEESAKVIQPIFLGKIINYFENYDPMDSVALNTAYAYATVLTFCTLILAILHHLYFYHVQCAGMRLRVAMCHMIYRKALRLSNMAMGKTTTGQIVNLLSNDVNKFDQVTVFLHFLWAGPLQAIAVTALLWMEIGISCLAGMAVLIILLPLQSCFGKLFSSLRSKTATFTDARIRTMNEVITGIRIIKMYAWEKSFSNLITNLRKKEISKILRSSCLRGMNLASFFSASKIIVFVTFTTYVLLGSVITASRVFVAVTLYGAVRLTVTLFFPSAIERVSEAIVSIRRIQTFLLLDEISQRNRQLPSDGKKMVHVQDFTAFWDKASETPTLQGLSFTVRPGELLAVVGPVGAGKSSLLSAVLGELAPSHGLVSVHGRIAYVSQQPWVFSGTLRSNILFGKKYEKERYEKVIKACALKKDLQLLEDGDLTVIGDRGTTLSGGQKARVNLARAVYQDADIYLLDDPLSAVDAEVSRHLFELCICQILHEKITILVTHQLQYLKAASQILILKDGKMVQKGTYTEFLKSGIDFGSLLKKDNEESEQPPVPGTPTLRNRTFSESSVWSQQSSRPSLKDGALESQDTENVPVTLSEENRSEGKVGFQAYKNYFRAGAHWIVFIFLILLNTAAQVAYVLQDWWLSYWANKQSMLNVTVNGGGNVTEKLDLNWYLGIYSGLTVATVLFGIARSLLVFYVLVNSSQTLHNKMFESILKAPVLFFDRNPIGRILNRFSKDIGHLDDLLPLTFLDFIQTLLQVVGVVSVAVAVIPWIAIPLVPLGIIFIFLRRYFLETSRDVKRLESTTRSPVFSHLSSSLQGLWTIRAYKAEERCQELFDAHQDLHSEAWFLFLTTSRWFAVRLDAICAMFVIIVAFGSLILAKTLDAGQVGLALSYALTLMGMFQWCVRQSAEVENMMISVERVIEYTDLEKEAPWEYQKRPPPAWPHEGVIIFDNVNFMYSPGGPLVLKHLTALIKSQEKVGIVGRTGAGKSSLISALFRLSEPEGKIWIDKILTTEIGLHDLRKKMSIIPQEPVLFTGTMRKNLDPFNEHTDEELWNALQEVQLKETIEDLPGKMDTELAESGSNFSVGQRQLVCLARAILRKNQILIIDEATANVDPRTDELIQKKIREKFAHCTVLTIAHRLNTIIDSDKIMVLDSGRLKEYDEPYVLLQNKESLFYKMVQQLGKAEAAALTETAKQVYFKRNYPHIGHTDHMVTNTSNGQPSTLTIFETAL", "experiment": "Membrane vesicle transport inhibition assay: MRP4-mediated [3H]-MTX uptake", "experimental": "as §1\nas §2, with “Subsequently, pellet was resuspended in ice-cold isotonic buffer (10 mM Tris-HEPES and 250 mM sucrose, pH 7.4, adjusted with HEPES) supplemented with protease inhibitors and homogenized using a tight fitting Dounce homogenizer followed by centrifugation (1,000 x g, 20 min, 4°C).” left out, “The resulting pellet was resuspended in isotonic buffer and passed through a 27-gauge needle 25 times to obtain crude membrane vesicles.” left out\nas §3\nDifferences between groups were considered to be statistically significant when p<0.05. The mean IC50 and IC20 values were calculated from the inhibition curves used for the Dixon analysis and to determine the inhibition constant (Ki) from the Dixon plots. Transport inhibition studies were performed in triplicate and repeated at least three times."}}, "note": "Structures can show the parent of a compound that is named as a salt."}
{"smiles": "Cc1ccccc1C(=O)NCC(=O)O", "note": "[2-methyl hippuric acid]", "values": [{"measurement": "Level in kidney tissue compared to the perfusate", "setting": "[1]", "result": 175, "unit": "times"}]}
{"smiles": "Cc1ccc(C(=O)NCC(=O)O)cc1", "note": "[4-methyl hippuric acid]", "values": [{"measurement": "Level in kidney tissue compared to the perfusate", "setting": "[1]", "result": 600, "unit": "times"}]}
{"smiles": "N.[3H]C1c2cc(OS(=O)(=O)O)ccc2[C@H]2CC[C@]3(C)C(=O)CC[C@H]3[C@@H]2C1[3H]", "note": "(stereo partly drawn) [[^3H]-E1S, [6′,7′-^3H(n)]-estrone-sulfate ammonium salt, reference compound]", "values": [{"measurement": "ATP-dependent uptake compared to EYFP controls", "setting": "[2]; BCRP-overexpressing vesicles vs EYFP controls", "result": 24, "unit": "fold"}, {"measurement": "ATP-dependent uptake, average rate", "setting": "[2]; BCRP-overexpressing vesicles, no inhibitor", "result": 15.5, "unit": "pmol/mg/min"}]}
{"smiles": "CN(Cc1cnc2nc(N)nc(N)c2n1)c1ccc(C(=O)N[C@@H](CCC(=O)O)C(=O)O)cc1", "note": "[[^3H]-MTX, [3′,5′,7′-^3H(n)]-methotrexate disodium salt, reference compound]", "values": [{"measurement": "ATP-dependent uptake compared to EYFP vesicles", "setting": "[3]; MRP4-overexpressing vesicles vs EYFP vesicles", "result": 11, "unit": "fold"}, {"measurement": "ATP-dependent uptake, average rate", "setting": "[3]; MRP4-overexpressing vesicles, no inhibitor", "result": 1.3, "unit": "pmol/mg/min"}]}
